Source: patent publication US20140004243A1, “SALTY TASTE ENHANCER” (AJINOMOTO CO., INC., priority 2011, published 2014)

Biological target: T1, Human ENaC δ, β and γ subunit (Homo sapiens, UniProt P51168+P51170+P51172)
T1 construct: expressed in transfected cells; host or cells: Xenopus laevis (African clawed frog) oocytes injected with cRNA
T1 sequence (P51172 1-802): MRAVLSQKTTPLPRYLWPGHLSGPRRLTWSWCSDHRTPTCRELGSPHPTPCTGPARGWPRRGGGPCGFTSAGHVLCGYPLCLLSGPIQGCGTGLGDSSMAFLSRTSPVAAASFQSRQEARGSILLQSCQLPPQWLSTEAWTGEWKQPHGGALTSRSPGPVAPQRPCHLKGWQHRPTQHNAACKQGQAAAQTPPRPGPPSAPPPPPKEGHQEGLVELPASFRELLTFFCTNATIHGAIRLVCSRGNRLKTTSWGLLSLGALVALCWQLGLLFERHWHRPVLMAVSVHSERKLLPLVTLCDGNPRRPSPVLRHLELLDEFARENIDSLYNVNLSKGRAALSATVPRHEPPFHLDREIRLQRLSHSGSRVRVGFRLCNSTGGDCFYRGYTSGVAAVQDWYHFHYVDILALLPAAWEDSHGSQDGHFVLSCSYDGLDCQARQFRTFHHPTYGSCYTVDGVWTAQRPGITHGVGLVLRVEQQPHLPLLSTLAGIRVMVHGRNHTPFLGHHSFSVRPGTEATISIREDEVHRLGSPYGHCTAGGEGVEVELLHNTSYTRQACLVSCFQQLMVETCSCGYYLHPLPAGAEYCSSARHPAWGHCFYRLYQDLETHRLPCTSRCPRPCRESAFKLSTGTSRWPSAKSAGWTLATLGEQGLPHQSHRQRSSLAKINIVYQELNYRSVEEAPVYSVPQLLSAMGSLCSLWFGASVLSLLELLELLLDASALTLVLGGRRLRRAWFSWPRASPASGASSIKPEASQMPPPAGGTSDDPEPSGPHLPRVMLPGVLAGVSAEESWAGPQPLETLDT
T1 sequence (P51168 1-640): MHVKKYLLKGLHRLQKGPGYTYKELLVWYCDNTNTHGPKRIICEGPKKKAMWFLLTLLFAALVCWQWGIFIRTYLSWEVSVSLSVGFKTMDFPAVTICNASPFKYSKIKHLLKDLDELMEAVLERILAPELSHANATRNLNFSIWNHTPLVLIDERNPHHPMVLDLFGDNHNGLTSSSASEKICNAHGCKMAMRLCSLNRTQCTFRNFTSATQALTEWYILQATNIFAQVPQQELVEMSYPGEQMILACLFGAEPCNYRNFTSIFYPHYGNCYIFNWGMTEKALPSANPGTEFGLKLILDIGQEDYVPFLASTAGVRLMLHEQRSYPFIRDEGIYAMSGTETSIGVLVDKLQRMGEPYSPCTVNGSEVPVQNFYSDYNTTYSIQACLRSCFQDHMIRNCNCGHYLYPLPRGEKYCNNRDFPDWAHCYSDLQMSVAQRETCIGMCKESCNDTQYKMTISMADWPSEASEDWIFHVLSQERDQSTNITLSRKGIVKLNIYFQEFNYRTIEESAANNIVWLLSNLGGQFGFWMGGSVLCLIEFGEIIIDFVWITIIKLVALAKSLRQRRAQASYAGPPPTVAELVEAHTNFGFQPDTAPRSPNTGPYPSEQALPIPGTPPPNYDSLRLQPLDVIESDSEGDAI
T1 sequence (P51170 1-649): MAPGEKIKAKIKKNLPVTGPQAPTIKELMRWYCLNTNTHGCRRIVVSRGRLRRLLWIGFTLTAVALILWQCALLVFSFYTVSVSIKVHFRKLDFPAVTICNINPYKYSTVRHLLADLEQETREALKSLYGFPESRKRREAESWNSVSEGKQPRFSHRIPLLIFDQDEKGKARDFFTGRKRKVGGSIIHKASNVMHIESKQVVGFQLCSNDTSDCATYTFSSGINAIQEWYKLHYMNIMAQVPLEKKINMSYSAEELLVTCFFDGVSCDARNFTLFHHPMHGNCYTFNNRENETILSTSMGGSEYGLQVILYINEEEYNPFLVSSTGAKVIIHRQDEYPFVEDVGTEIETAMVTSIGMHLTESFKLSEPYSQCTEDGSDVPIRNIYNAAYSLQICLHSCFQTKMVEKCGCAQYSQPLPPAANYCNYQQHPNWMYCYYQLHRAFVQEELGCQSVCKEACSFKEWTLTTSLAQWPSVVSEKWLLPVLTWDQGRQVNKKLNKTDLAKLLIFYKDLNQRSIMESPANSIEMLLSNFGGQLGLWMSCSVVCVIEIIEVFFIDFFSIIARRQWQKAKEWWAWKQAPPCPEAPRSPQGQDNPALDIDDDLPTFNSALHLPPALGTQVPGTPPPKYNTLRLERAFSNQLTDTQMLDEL
Assay: Measurement of ENaC activation potency (MED) in ENaC-expressing oocyte, Two Electrode Voltage Clamp
Assay type: cell-based
Conditions: minimum effective dose at which current started to increase; ENaC-expressing African clawed frog oocyte; smaller MED = higher ENaC activation potency
Summary of the method: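 Xenopus oocytes injected with human ENaC δ, β and γ cRNA, cultured 16–72 hr, voltage-clamped 30 mV below resting potential in ND96 (pH 7.6) by two-electrode voltage clamp. Compounds (0.1 nM–300 μM) perfused at rising concentrations every 3 min. MED = lowest dose raising current ≥10%, or raising 5 μM capsazepine-evoked current ≥25%, whichever smaller.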

Going from `CN(CCc1ccccc1)C(=S)Nc1ccccc1C(=O)O` [Example 38] to `S=C(CCc1ccccc1)NCCc1ccccc1` [Example 81], the MED rises from 0.1 µM to 10 µM (100-fold).

`C[C@@H](NC(=S)NC(Cc1ccccc1O)C(=O)O)c1cccc(O)c1` (stereo partly drawn) [Example 106, 2-{3-[(R)-1-(3-hydroxyphenyl)ethyl]thioureido}-3-(2-hydroxyphenyl)propanoic acid] showed an MED of 0.1 to 0.3 µM.
